Results as given in US20260034094A1, “COMPOSITIONS AND METHODS FOR INDUCING FERROPTOSIS” (Kojin Therapeutics, Inc., priority 2022, published 2026).
Values joined by “and” are separate entries in the source; they are usually repeats but may differ in a detail not shown here. Equal values may be shown once. Read-outs that look alike come from different tables or passages of the source.

Key:
human recombinant GCL = human recombinant GCL (Homo sapiens (Human), UniProt P48506); assay: GCL enzyme profiling assay (ADP-Glo luminescence); assay type: biochemical
Sequence of human recombinant GCL (P48506 whole entry): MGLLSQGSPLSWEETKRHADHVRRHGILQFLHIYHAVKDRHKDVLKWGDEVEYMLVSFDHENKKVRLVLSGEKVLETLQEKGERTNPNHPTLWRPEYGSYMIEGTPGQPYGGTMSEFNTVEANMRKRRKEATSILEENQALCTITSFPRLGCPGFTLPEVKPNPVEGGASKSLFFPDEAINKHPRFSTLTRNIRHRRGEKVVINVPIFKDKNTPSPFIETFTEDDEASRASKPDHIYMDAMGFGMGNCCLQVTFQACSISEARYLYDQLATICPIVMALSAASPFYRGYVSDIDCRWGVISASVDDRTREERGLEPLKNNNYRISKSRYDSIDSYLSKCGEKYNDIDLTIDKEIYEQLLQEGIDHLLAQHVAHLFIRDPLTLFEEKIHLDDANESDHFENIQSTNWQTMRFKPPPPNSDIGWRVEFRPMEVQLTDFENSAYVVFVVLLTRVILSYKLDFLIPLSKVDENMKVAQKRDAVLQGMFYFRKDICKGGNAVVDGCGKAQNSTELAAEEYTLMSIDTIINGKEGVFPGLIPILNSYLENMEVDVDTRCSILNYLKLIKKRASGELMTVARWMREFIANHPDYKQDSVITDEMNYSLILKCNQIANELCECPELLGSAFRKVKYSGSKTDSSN
Method in brief: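 ADP-Glo luminescence readout; 5 nM enzyme preincubated 1 h at 22 °C with 0.6 mM ATP, then started with 1 mM glutamate and 1.2 mM α-aminobutyrate, stopped after 2 h. Buffer: HEPES pH 7.5, MgCl2, DTT, BSA, 0.2% F-127, 1% DMSO. IC50 from four-parameter logistic fit.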

RKN cells = assay: RKN cell profiling assay (cell viability, CellTiter-Glo); assay type: cell-based; details: read-out: Cell Killing EC50
Method in brief: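 Cells seeded at 1,000/well in F-12 with 10% FBS, left to adhere 24 h, then compound-treated for 96 h at 0.5% final DMSO. Viability by CellTiter-Glo luminescence; EC50 from four-parameter logistic fit. Ferroptosis rescue runs included 1.5 μM ferrostatin-1 added at seeding.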

[1] = human recombinant GCL 5 nM, 1 h preincubation with ATP, read-out: GCL IC50
[2] = human recombinant GCL 5 nM, 1 h preincubation with ATP, read-out: GCL IC50 (mM), individual values in parentheses
[3] = human recombinant GCL, ADP-Glo, read-out: GCL IC50

SMILES	IC50 (human recombinant GCL; [1])	IC50 (human recombinant GCL; [2])	EC50 (RKN cells; 96 h, 96 h exposure)	IC50 (human recombinant GCL; [3])	EC50 (RKN cells; cell viability)
N=S(=O)(CCCC(F)F)CC[C@H](N)C(=O)O (some centres unmarked) [Compound 169]	≤ 0.02 mM and 0.02 to 2 mM	0.0102 mM and 0.1 mM	< 1000 µM	–	–
CC(C)(C)CCS(=N)(=O)CC[C@H](N)C(=O)Nc1ccncc1 (some centres unmarked) [Compound 127]	> 2 mM	–	< 1000 µM	–	–
C[C@](O)(CCS(=N)(=O)CC[C@H](N)C(=O)O)C(F)(F)F (single isomer, unassigned) [Compound 324]	–	–	–	≤ 0.02 mM	< 1000 µM
Cc1noc(C)c1-c1ccc(C(O)(CCS(=N)(=O)CC[C@H](N)C(=O)O)C(F)(F)F)cc1 (some centres unmarked) [Compound 448]	–	–	–	≤ 0.02 mM	≥ 1000 µM
Cc1ccc(-c2ccc(C(O)(CCS(=N)(=O)CC[C@H](N)C(=O)O)C(F)(F)F)cc2)c(C)c1 (some centres unmarked) [Compound 438]	–	–	–	≤ 0.02 mM	< 1000 µM
N=S(=O)(CCCCc1ccccc1)CC[C@H](N)C(=O)O (some centres unmarked) [Compound 52]	0.02 to 2 mM	–	≥ 1000 µM	–	–
N=S(=O)(CCC(c1ccc(CCC(F)(F)F)cc1)C(F)(F)F)CC[C@H](N)C(=O)O (stereo partly drawn) [Compound 213, (2S)-2-amino-4-(4,4,4-trifluoro-3-(4-(3,3,3-trifluoropropyl)phenyl)butylsulfonimidoyl)butanoic acid]	–	–	–	≤ 0.02 mM	≥ 1000 µM
N=S(=O)(CCCC(F)(F)F)CC[C@H](N)C(=O)O (stereo partly drawn) [Compound 150, (2S)-2-amino-4-(4,4,4-trifluorobutylsulfonimidoyl)butanoic acid]	≤ 0.02 mM	–	< 1000 µM	–	–
CC(C)(C)CCS(=N)(=O)CC[C@H](N)C(=O)O (some centres unmarked) [Compound 187]	0.02 to 2 mM	–	< 1000 µM	–	–
N=S(=O)(CCc1nccs1)CC[C@H](N)C(=O)O (some centres unmarked) [Compound 10]	> 2 mM	–	≥ 1000 µM	–	–
CC(C)(CCS(=N)(=O)CC[C@H](N)C(=O)O)n1ncc(-c2ccccc2)n1 (stereo partly drawn) [Compound 208, (2S)-2-amino-4-(3-methyl-3-(4-phenyl-2H-1,2,3-triazol-2-yl)butylsulfonimidoyl)butanoic acid]	≤ 0.02 mM and 0.02 to 2 mM	0.0204 mM and 0.02 mM	< 1000 µM	–	–
N=S(=O)(CC[C@H](N)C(=O)O)CCC(O)(c1ccc(-c2ccc(Cl)cc2Cl)cc1OC(F)(F)F)C(F)(F)F (some centres unmarked) [Compound 449]	–	–	–	≤ 0.02 mM	≥ 1000 µM
CC(C)(C)CCS(=N)(=O)CC[C@H](N)C(=O)NC1CCOCC1 (some centres unmarked) [Compound 120]	> 2 mM	–	< 1000 µM	–	–
CCC(C)(C)OC(=O)[C@@H](N)CCS(=N)(=O)CCCC(F)(F)F (some centres unmarked) [Compound 484]	–	–	–	0.02 to 2 mM	< 1000 µM
N=S(=O)(CC[C@H](N)C(=O)O)CCC(O)(c1cc(-c2ccccc2)sn1)C(F)(F)F (some centres unmarked) [Compound 376]	–	–	–	≤ 0.02 mM	< 1000 µM
N=S(=O)(CCC(c1c[nH]c2ccccc12)C(F)(F)F)CC[C@H](N)C(=O)O (some centres unmarked) [Compound 64]	≤ 0.02 mM	–	< 1000 µM	–	–
N=S(=O)(CC[C@H](N)C(=O)O)CCC(O)(c1ccon1)C(F)(F)F (some centres unmarked) [Compound 368]	–	–	–	0.02 to 2 mM	< 1000 µM
N=S(=O)(CCC(n1ccc(-c2ccccc2)n1)C(F)(F)F)CC[C@H](N)C(=O)O (some centres unmarked) [Compound 416]	–	–	–	≤ 0.02 mM	≥ 1000 µM
N=S(=O)(CC[C@H](N)C(=O)O)CCC1(C(=O)N2CCCC2)CCC1 (some centres unmarked) [Compound 194]	0.02 to 2 mM	–	≥ 1000 µM	–	–
N=S(=O)(CC[C@H](N)C(=O)O)CCC(O)(c1ccc(C2CC2)cn1)C(F)(F)F (some centres unmarked) [Compound 475]	–	–	–	0.02 to 2 mM	≥ 1000 µM
COCCCCS(=N)(=O)CC[C@H](N)C(=O)OC (some centres unmarked) [Compound 76]	0.02 to 2 mM	–	≥ 1000 µM	–	–
CC(O)(CCS(=N)(=O)CC[C@H](N)C(=O)O)C(F)(F)F (stereo partly drawn) [Compound 174, (2S)-2-amino-4-(4,4,4-trifluoro-3-hydroxy-3-methylbutylsulfonimidoyl)butanoic acid]	0.02 to 2 mM	–	< 1000 µM	–	–
Cc1cc(C(O)(CCS(=N)(=O)CC[C@H](N)C(=O)O)C(F)(F)F)ccc1-c1ccc(O)c(F)c1 (some centres unmarked) [Compound 455]	–	–	–	≤ 0.02 mM	≥ 1000 µM
CC(C)OCCS(=N)(=O)CC[C@H](N)C(=O)O (some centres unmarked) [Compound 166]	0.02 to 2 mM	–	≥ 1000 µM	–	–
N=S(=O)(CC[C@H](N)C(=O)O)CCC1(c2ccc3[nH]ncc3c2)CCC1 (some centres unmarked) [Compound 394]	–	–	–	≤ 0.02 mM	≥ 1000 µM
N=S(=O)(CC[C@H](N)C(=O)O)CCC(O)(c1cc(-c2ccccc2)on1)C(F)(F)F (some centres unmarked) [Compound 378]	–	–	–	≤ 0.02 mM	< 1000 µM
N=S(=O)(CC[C@H](N)C(=O)O)CCC(O)(CC(F)(F)F)c1ccc(-c2ccc(Cl)cc2Cl)cc1 (stereo partly drawn) [Compound 494, (2S)-2-amino-4-(3-(2′, 4′-dichloro-[1, 1′-biphenyl]-4-yl)-5,5,5-trifluoro-3-hydroxypentylsulfonimidoyl) butanoic acid]	–	–	–	≤ 0.02 mM	≥ 1000 µM
